Data taken from ChEMBL document CHEMBL3856281, “Novel approach of fragment-based lead discovery applied to renin inhibitors” (Bioorg Med Chem, 2016).
Values after ≈ are worked out from the molar mass of the structure shown. Each block holds one compound with its values, some of them ahead of it.

Legend:
[1] = target: CYP3A4 (Homo sapiens, UniProt P08684); assay: Inhibition of CYP3A4 in human liver microsomes using testosterone as substrate assessed as 6beta-hydroxytestosterone formation at 10 uM after 60 mins by LC/MS/MS analysis relative to control; type: ADME; details: probe testosterone
Sequence of CYP3A4 (P08684 whole entry): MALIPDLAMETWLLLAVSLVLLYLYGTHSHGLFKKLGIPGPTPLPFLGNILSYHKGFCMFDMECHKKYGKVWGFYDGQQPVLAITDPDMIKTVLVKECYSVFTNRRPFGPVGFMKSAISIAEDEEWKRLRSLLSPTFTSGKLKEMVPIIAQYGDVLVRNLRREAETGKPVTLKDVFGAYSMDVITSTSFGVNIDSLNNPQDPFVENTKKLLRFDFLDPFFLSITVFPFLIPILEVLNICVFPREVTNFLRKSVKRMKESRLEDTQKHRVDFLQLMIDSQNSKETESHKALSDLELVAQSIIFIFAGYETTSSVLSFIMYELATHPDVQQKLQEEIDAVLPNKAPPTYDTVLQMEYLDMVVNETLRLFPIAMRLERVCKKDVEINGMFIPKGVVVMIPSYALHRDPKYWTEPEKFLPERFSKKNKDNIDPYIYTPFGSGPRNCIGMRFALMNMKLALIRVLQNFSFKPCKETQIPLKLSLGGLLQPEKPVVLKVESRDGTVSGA

[2] = Cytotoxicity against human HepG2 cells assessed as ATP contents at 30 uM after 1 day by ATPLiteTM-M assay relative to control; type: toxicity, cell-based; details: read-out: Activity
[3] = Aqueous solubility of the compound in pH 6.8 Japanese pharmacopoeia second fluid by HPLC analysis; type: ADME
[4] = Intrinsic clearance in human liver microsomes assessed per mg of protein at 1 umol/l after 15 to 30 mins in presence of NADPH-generating system by LC/MS/MS analysis; type: ADME; details: read-out: CLH
[5] = target: T1, Renin (Homo sapiens) (UniProt P00797); assay: (§1) Inhibition of human recombinant renin expressed in FreeStyle 293 expression system at 100 uM using FITC-epsilonAcp-Asp-Arg-Val-Tyr-Ile-His-Pro-Phe-His-Leu-Val-Ile-His-Asn-Arg-NH2 as substrate preincubated for 15 mins followed by substrate addition measured after 30 mins by microchip type capillary electrophoresis method relative to control
T1 sequence (whole entry): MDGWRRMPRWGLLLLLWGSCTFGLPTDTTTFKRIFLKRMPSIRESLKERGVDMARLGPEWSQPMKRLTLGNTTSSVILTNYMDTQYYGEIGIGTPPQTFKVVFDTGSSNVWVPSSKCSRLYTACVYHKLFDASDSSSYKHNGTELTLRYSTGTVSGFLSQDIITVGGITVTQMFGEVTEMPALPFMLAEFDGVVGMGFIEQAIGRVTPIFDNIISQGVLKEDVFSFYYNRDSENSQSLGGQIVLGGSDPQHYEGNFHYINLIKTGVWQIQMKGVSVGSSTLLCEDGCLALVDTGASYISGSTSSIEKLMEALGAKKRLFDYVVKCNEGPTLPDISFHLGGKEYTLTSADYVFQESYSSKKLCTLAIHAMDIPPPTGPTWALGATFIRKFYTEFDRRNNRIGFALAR

[6] = target: hERG (KCNH2) (Homo sapiens, UniProt Q12809); assay: Inhibition of human ERG expressed in CHO cells assessed as suppression of peak tail currents incubated for 5 mins by patch clamp method; type: cell-based; details: CHO cells that express human ERG
Sequence of hERG (KCNH2) (Q12809 whole entry): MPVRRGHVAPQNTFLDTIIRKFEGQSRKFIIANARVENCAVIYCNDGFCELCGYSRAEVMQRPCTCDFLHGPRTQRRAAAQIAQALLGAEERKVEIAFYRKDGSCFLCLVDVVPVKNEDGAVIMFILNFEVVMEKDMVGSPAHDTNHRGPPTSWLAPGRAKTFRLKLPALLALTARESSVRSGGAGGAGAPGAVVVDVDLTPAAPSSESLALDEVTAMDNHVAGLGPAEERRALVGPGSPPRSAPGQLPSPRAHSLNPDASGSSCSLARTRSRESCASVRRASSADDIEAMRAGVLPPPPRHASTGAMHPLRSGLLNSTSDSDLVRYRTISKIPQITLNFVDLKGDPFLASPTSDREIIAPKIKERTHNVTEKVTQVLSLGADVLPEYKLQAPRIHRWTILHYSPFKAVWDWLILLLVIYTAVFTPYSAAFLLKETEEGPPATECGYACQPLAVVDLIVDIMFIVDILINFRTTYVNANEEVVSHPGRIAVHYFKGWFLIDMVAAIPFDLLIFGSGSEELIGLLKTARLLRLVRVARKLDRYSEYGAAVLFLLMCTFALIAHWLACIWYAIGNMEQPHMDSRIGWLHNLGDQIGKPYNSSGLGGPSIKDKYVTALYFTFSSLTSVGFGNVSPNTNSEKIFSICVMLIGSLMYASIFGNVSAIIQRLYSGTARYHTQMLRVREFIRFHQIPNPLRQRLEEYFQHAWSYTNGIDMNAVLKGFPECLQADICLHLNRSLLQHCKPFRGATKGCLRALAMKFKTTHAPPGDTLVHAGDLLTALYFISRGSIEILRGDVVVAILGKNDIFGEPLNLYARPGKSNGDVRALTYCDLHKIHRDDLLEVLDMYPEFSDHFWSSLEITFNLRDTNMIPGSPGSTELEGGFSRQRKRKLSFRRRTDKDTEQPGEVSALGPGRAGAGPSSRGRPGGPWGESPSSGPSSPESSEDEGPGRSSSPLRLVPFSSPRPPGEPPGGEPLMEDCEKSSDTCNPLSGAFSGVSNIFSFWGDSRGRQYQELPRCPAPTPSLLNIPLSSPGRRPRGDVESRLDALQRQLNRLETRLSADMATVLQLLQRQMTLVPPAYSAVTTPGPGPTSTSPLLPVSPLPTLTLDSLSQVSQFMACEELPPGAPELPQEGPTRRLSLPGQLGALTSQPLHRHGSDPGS

[7] = target: T2, Renin (Homo sapiens, UniProt P00797); assay: as §1, with “system” for “system at 100 uM”, “method” for “method relative to control”
T2 sequence (P00797 whole entry): T1 sequence (whole entry)

inhibition at 1 h, 10 µM [1]: 70.2%
solubility [3]: 5.2 µg/mL (≈ 18.2 µM)
microsomal CLint at 1 µM [4]: 187 µL/min/mg
SMILES: c1coc(CNc2ncnc3sc4c(c23)CCCC4)c1
viability at 24 h, 30 µM [2]: 31.4%
inhibition at 5 min [6]: 62.8%

IC50 [7]: > 300 µM
SMILES: NCc1ccco1

IC50 [7]: 11 µM
inhibition [5]: 86%
SMILES: CCC1CCCCN1C(=O)c1ccc(C)nc1NCc1ccco1 (stereo not drawn)

The next lines start with the compound.

SMILES: Cc1ccc(C(=O)N2CCCCCC2)c(NCc2ccco2)n1
inhibition at 1 h, 10 µM [1]: 35.6%
viability at 24 h, 30 µM [2]: 91.6%
solubility [3]: 50 µg/mL (≈ 160 µM)
microsomal CLint at 1 µM [4]: 85 µL/min/mg
inhibition [5]: 70%
inhibition at 5 min [6]: 7.5%

SMILES: Nc1ncnc2sc3c(c12)CCCC3
IC50 [7]: > 300 µM

SMILES: Cc1ccc(C(=O)NC(C)(C)c2ccccc2)c(NCc2ccco2)n1
inhibition [5]: < 30%

SMILES: Clc1cncc(NCc2ccco2)n1
inhibition [5]: 65%

SMILES: CCN(CC)C(=O)c1ccc(C)nc1NCc1ccco1
inhibition [5]: 31%
